Data as given in article PMC7313537 (PLoS ONE, 2020).

What was measured:
AKT1 = AKT1 (Homo sapiens, UniProt P31749); experiment: Enzyme selectivity panel; assay type: biochemical; conditions: 1 mM ATP
Protocol: (§2) The kinase assays were carried out at room temperature in HEPES 50 mM, pH 7.0, NaN3 0.02%, BSA 0.01%, Orthovanadate 0.1 mM, DTT 1 mM, MgCl2 10 mM in a final volume of 10 µL. Test compounds were transferred to the plate wells by ECHO liquid handler (Labcyte, San Jose, CA) with 0.5% dimethyl sulfoxide (DMSO) in the final assay. Peptide/kinase mixtures were diluted in the appropriate enzymatic buffer and 5µL of the mixture was added to a 384-well small volume black plate. Reactions were initiated by the addition of 5 µL ATP in reaction buffer, the final reaction mixture consisted of 500 nM peptide substrate, 1 mM ATP, and appropriate amount of specific kinase. […] The plates were then sealed and centrifuged at 1800 rpm for 2 minutes. […] Half maximal inhibitory concentration (IC50) determination was performed by fitting the curve of percent control activity versus the log of the compound concentration using the GraphPad Prism 6.0 software.

FAK = FAK (Homo sapiens, UniProt Q05397); experiment: Enzyme selectivity panel; assay type: biochemical; conditions: 1 mM ATP
Protocol: as §2

HEK293 = experiment: Cell viability assay (CellTiter-Glo); assay type: cell-based; conditions: Homo sapiens, Embyronic kidney, lacking FGFR alterations
IKKA = IKKA (Homo sapiens, UniProt O15111); experiment: Enzyme selectivity panel; assay type: biochemical; conditions: 1 mM ATP
Protocol: as §2

CHEK1 = CHEK1 (Homo sapiens, UniProt O14757); experiment: Enzyme selectivity panel; assay type: biochemical; conditions: 1 mM ATP
Protocol: as §2

DMS-114 (lung cancer) = experiment: Cell viability assay (CellTiter-Glo); assay type: cell-based; conditions: Homo sapiens, FGFR1 amplification, 72 hours, read-out: Mean GI50 ± S.D.
TRKA = TRKA (Homo sapiens, UniProt P04629); experiment: Enzyme selectivity panel; assay type: biochemical; conditions: 1 mM ATP
Protocol: as §2

[1] = system: VEGF-induced growth of human umbilical vein endothelial cells (HUVEC); experiment: HUVEC proliferation stimulated with VEGF; assay type: cell-based
Text: S2 Figure. […] Directly. An assay was developed to evaluate the proliferation of human umbilical vein endothelial cells (HUVEC) when stimulated with basic FGF (b-FGF) or VEGF.

MST3 (STK24) = target: T1, MST3 (STK24) (Homo sapiens, UniProt Q9Y6E0); experiment: Broader kinase panel (PerkinElmer); assay type: biochemical; conditions: 100 nM; read-out: Average Percent Inhibition
T1 construct: purchased In-house HTRF panel (56 kinases) and PerkinElmer (161-kinase panel)
Text: (§1) […]. […] […].

DYRK1B = target: T2, DYRK1B (Homo sapiens, UniProt Q9Y463); experiment: Broader kinase panel (PerkinElmer); assay type: biochemical; conditions: 100 nM; read-out: Average Percent Inhibition
T2 construct: purchased In-house HTRF panel (56 kinases) and PerkinElmer (161-kinase panel)
Text: as §1

MAPKAPK2 = MAPKAPK2 (Homo sapiens, UniProt P49137); experiment: Broader kinase panel (PerkinElmer); assay type: biochemical; conditions: 100 nM; read-out: Average Percent Inhibition
Text: as §1

BRSK2 = target: T3, BRSK2 (Homo sapiens, UniProt Q8IWQ3); experiment: Broader kinase panel (PerkinElmer); assay type: biochemical; conditions: 100 nM; read-out: Average Percent Inhibition
T3 construct: purchased In-house HTRF panel (56 kinases) and PerkinElmer (161-kinase panel)
Text: as §1

Casein kinase 1g2 = target: T4, Casein kinase 1g2 (Homo sapiens, UniProt P78368); experiment: Broader kinase panel (PerkinElmer); assay type: biochemical; conditions: 100 nM; read-out: Average Percent Inhibition
T4 construct: purchased In-house HTRF panel (56 kinases) and PerkinElmer (161-kinase panel)
Text: as §1

PAK5 (PAK7) = target: T5, PAK5 (PAK7) (Homo sapiens, UniProt Q9P286); experiment: Broader kinase panel (PerkinElmer); assay type: biochemical; conditions: 100 nM; read-out: Average Percent Inhibition
T5 construct: purchased In-house HTRF panel (56 kinases) and PerkinElmer (161-kinase panel)
Text: as §1

EPHA8 = target: T6, EPHA8 (Homo sapiens, UniProt P29322); experiment: Broader kinase panel (PerkinElmer); assay type: biochemical; conditions: 100 nM; read-out: Average Percent Inhibition
T6 construct: purchased In-house HTRF panel (56 kinases) and PerkinElmer (161-kinase panel)
Text: as §1

EPHA3 = target: T7, EPHA3 (Homo sapiens, UniProt P29320); experiment: Broader kinase panel (PerkinElmer); assay type: biochemical; conditions: 100 nM; read-out: Average Percent Inhibition
T7 construct: purchased In-house HTRF panel (56 kinases) and PerkinElmer (161-kinase panel)
Text: as §1

CK1-epsilon = target: T8, CK1-epsilon (Homo sapiens, UniProt P49674); experiment: Broader kinase panel (PerkinElmer); assay type: biochemical; conditions: 100 nM; read-out: Average Percent Inhibition
T8 construct: purchased In-house HTRF panel (56 kinases) and PerkinElmer (161-kinase panel)
Text: as §1

PDGFR-alpha (V561D) = target: T9, PDGFR-alpha (V561D) (Homo sapiens, UniProt P16234, V561D); experiment: Broader kinase panel (PerkinElmer); assay type: biochemical; conditions: 100 nM; read-out: Average Percent Inhibition
T9 construct: purchased In-house HTRF panel (56 kinases) and PerkinElmer (161-kinase panel)
Text: as §1

AKT3 = target: T10, AKT3 (Homo sapiens, UniProt Q9Y243); experiment: Broader kinase panel (PerkinElmer); assay type: biochemical; conditions: 100 nM; read-out: Average Percent Inhibition
T10 construct: purchased In-house HTRF panel (56 kinases) and PerkinElmer (161-kinase panel)
Text: as §1

CamK1d = target: T11, CamK1d (Homo sapiens, UniProt Q8IU85); experiment: Broader kinase panel (PerkinElmer); assay type: biochemical; conditions: 100 nM; read-out: Average Percent Inhibition
T11 construct: purchased In-house HTRF panel (56 kinases) and PerkinElmer (161-kinase panel)
Text: as §1

Mer = target: T12, Mer (Homo sapiens, UniProt Q12866); experiment: Broader kinase panel (PerkinElmer); assay type: biochemical; conditions: 100 nM; read-out: Average Percent Inhibition
T12 construct: purchased In-house HTRF panel (56 kinases) and PerkinElmer (161-kinase panel)
Text: as §1

LCK = LCK (Homo sapiens, UniProt P06239); experiment: Broader kinase panel (PerkinElmer); assay type: biochemical; conditions: 100 nM; read-out: Average Percent Inhibition
Text: as §1

Ca MK1a = target: T13, Ca MK1a (Homo sapiens, UniProt Q14012); experiment: Broader kinase panel (PerkinElmer); assay type: biochemical; conditions: 100 nM; read-out: Average Percent Inhibition
T13 construct: purchased In-house HTRF panel (56 kinases) and PerkinElmer (161-kinase panel)
Text: as §1

RSK3 = target: T14, RSK3 (Homo sapiens, UniProt Q15349); experiment: Broader kinase panel (PerkinElmer); assay type: biochemical; conditions: 100 nM; read-out: Average Percent Inhibition
T14 construct: purchased In-house HTRF panel (56 kinases) and PerkinElmer (161-kinase panel)
Text: as §1

MNK1 (MKNK1) = target: T15, MNK1 (MKNK1) (Homo sapiens, UniProt Q9BUB5); experiment: Broader kinase panel (PerkinElmer); assay type: biochemical; conditions: 100 nM; read-out: Average Percent Inhibition
T15 construct: purchased In-house HTRF panel (56 kinases) and PerkinElmer (161-kinase panel)
Text: as §1

EPHB4 [2] = target: T16, EPHB4 (Homo sapiens, UniProt P54760); experiment: Broader kinase panel (PerkinElmer); assay type: biochemical; conditions: 100 nM; read-out: Average Percent Inhibition
T16 construct: purchased In-house HTRF panel (56 kinases) and PerkinElmer (161-kinase panel)
Text: as §1

NEK2 = target: T17, NEK2 (Homo sapiens, UniProt P51955); experiment: Broader kinase panel (PerkinElmer); assay type: biochemical; conditions: 100 nM; read-out: Average Percent Inhibition
T17 construct: purchased In-house HTRF panel (56 kinases) and PerkinElmer (161-kinase panel)
Text: as §1

MARK1 = target: T18, MARK1 (Homo sapiens, UniProt Q9P0L2); experiment: Broader kinase panel (PerkinElmer); assay type: biochemical; conditions: 100 nM; read-out: Average Percent Inhibition
T18 construct: purchased In-house HTRF panel (56 kinases) and PerkinElmer (161-kinase panel)
Text: as §1

EPHB3 = target: T19, EPHB3 (Homo sapiens, UniProt P54753); experiment: Broader kinase panel (PerkinElmer); assay type: biochemical; conditions: 100 nM; read-out: Average Percent Inhibition
T19 construct: purchased In-house HTRF panel (56 kinases) and PerkinElmer (161-kinase panel)
Text: as §1

HER4 = target: T20, HER4 (Homo sapiens, UniProt Q15303); experiment: Broader kinase panel (PerkinElmer); assay type: biochemical; conditions: 100 nM; read-out: Average Percent Inhibition
T20 construct: purchased In-house HTRF panel (56 kinases) and PerkinElmer (161-kinase panel)
Text: as §1

KIT[T670I] = target: T21, KIT[T670I] (Homo sapiens, UniProt P10721, T670I); experiment: Broader kinase panel (PerkinElmer); assay type: biochemical; conditions: 100 nM; read-out: Average Percent Inhibition
T21 construct: purchased In-house HTRF panel (56 kinases) and PerkinElmer (161-kinase panel)
Text: as §1

AurB = target: T22, AurB (Homo sapiens, UniProt Q96GD4); experiment: Broader kinase panel (PerkinElmer); assay type: biochemical; conditions: 100 nM; read-out: Average Percent Inhibition
T22 construct: purchased In-house HTRF panel (56 kinases) and PerkinElmer (161-kinase panel)
Text: as §1

PhKg1 = target: T23, PhKg1 (Homo sapiens, UniProt Q16816); experiment: Broader kinase panel (PerkinElmer); assay type: biochemical; conditions: 100 nM; read-out: Average Percent Inhibition
T23 construct: purchased In-house HTRF panel (56 kinases) and PerkinElmer (161-kinase panel)
Text: as §1

EGFR(T790M) = target: T24, EGFR(T790M) (Homo sapiens, UniProt P00533, T790M); experiment: Broader kinase panel (PerkinElmer); assay type: biochemical; conditions: 100 nM; read-out: Average Percent Inhibition
T24 construct: purchased In-house HTRF panel (56 kinases) and PerkinElmer (161-kinase panel)
Text: as §1

RSK4 = target: T25, RSK4 (Homo sapiens, UniProt Q9UK32); experiment: Broader kinase panel (PerkinElmer); assay type: biochemical; conditions: 100 nM; read-out: Average Percent Inhibition
T25 construct: purchased In-house HTRF panel (56 kinases) and PerkinElmer (161-kinase panel)
Text: as §1

PYK2 = target: T26, PYK2 (Homo sapiens, UniProt Q14289); experiment: Broader kinase panel (PerkinElmer); assay type: biochemical; conditions: 100 nM; read-out: Average Percent Inhibition
T26 construct: purchased In-house HTRF panel (56 kinases) and PerkinElmer (161-kinase panel)
Text: as §1

MAP3K8 = MAP3K8 (Homo sapiens, UniProt P41279); experiment: Enzyme selectivity panel; assay type: biochemical; conditions: 1 mM ATP
Protocol: as §2

PLK3 = PLK3 (Homo sapiens, UniProt Q9H4B4); experiment: Enzyme selectivity panel; assay type: biochemical; conditions: 1 mM ATP
Protocol: as §2

OPM-2 (myeloma) = experiment: Cell viability assay (CellTiter-Glo); assay type: cell-based; conditions: Homo sapiens, IgH-FGFR3 translocation, 72 hours, read-out: Mean GI50 ± S.D.
EPHB4 [3] = target: T16, EPHB4; experiment: Enzyme selectivity panel; assay type: biochemical; conditions: 1 mM ATP
Protocol: as §2

T16 sequence (P54760 16-987, species assumed): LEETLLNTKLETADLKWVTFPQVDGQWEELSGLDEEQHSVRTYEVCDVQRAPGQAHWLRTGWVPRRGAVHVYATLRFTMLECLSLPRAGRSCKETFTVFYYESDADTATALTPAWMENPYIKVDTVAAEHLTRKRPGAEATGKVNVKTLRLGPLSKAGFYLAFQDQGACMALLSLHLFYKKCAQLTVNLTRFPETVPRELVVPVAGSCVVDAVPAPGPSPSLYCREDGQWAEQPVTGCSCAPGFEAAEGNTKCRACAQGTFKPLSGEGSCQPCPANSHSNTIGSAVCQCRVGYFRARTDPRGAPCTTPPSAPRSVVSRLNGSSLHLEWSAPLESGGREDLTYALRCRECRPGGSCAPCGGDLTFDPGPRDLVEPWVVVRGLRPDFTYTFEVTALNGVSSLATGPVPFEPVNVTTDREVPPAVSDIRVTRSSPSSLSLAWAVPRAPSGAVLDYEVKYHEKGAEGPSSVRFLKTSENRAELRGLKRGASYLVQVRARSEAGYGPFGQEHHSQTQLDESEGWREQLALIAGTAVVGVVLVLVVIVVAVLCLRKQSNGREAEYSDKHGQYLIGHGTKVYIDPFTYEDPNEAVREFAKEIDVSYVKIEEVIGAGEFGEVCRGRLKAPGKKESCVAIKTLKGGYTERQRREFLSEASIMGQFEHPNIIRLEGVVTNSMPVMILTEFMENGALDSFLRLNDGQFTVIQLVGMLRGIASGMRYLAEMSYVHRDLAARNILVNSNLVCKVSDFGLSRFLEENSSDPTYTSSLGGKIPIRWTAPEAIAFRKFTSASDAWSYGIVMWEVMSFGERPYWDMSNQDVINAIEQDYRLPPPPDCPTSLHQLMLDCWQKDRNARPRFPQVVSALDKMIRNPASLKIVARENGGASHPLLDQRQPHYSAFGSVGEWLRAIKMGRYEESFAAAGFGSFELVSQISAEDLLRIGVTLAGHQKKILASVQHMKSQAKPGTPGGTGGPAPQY
T4 sequence (P78368 whole entry): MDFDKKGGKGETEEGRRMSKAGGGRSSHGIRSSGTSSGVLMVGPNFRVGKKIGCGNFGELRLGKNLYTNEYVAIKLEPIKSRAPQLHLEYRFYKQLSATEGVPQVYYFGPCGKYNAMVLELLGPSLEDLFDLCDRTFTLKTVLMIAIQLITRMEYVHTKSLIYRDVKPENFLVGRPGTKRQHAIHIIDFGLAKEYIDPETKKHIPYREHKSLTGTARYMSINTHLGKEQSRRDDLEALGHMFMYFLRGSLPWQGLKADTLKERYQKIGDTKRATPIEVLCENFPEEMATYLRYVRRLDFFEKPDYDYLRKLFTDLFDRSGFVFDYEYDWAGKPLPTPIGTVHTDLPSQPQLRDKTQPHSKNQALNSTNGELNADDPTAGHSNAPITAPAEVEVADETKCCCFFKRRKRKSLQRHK
T13 sequence (Q14012 whole entry): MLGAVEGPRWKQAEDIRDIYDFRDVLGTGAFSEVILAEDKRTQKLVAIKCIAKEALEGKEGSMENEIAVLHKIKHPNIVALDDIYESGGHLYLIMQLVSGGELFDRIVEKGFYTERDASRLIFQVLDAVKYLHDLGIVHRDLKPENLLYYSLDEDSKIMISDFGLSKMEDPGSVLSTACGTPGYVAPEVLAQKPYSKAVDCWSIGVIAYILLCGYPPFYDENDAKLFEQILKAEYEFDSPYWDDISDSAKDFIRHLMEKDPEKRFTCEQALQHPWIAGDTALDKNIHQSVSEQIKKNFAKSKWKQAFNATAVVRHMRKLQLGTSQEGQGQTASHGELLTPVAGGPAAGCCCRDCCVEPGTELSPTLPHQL
T18 sequence (Q9P0L2 whole entry): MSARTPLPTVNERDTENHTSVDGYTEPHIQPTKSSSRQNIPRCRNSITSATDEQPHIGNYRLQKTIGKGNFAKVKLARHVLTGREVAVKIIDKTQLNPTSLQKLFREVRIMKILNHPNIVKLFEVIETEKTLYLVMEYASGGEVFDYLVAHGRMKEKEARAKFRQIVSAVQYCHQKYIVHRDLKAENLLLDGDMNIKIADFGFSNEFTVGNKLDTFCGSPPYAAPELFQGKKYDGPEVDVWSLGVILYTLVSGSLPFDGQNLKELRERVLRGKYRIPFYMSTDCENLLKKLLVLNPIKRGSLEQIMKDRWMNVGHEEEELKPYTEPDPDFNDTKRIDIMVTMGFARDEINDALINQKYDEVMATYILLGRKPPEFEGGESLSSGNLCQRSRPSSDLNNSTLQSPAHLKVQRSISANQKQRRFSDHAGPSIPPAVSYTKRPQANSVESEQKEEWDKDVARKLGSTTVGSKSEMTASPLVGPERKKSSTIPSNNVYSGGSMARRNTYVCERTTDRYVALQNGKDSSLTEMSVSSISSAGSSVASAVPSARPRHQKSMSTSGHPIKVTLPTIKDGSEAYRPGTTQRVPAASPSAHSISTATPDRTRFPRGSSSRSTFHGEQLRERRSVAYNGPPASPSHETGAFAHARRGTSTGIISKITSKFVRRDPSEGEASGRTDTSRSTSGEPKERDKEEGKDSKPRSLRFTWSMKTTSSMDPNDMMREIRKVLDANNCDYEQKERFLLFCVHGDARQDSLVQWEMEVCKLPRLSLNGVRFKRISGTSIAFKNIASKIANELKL
T26 sequence (Q14289 whole entry): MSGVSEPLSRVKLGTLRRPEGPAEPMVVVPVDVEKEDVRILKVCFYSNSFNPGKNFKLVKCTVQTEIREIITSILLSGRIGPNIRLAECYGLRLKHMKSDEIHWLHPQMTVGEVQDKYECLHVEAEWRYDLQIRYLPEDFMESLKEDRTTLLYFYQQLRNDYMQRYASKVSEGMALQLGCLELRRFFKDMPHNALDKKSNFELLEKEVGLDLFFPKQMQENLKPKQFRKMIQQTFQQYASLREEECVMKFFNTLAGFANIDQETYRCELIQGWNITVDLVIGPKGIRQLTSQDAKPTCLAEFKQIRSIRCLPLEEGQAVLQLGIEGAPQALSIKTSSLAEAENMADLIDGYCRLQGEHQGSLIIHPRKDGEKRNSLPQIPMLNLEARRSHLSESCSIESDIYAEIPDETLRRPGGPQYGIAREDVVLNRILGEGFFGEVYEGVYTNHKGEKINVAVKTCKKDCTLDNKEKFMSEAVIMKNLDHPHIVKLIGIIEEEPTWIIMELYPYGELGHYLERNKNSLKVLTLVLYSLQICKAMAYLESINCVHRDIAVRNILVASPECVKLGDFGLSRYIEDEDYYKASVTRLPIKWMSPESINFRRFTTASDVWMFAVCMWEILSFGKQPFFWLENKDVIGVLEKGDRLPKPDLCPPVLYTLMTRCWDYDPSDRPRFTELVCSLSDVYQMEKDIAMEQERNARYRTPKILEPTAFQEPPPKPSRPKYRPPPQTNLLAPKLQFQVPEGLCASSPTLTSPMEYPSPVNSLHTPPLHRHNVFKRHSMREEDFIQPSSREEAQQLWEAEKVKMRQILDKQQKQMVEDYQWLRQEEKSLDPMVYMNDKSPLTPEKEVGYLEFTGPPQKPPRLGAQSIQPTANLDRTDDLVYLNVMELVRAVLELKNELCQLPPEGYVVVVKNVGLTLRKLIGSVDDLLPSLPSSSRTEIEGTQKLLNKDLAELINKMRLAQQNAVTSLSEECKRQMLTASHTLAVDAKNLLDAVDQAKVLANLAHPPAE
Chain of MAPKAPK2 (P49137 whole entry, species assumed): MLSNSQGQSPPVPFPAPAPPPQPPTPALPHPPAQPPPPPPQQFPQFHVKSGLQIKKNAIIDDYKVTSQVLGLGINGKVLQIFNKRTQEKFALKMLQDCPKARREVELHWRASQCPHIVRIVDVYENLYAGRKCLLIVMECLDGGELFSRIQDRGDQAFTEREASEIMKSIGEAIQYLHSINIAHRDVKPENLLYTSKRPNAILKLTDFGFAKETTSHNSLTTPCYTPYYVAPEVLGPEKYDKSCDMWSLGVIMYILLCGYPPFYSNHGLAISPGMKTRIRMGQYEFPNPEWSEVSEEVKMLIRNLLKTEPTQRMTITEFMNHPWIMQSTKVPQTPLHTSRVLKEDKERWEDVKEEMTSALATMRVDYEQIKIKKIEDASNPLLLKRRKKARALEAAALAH
Chain of AKT1 (P31749 whole entry, species assumed): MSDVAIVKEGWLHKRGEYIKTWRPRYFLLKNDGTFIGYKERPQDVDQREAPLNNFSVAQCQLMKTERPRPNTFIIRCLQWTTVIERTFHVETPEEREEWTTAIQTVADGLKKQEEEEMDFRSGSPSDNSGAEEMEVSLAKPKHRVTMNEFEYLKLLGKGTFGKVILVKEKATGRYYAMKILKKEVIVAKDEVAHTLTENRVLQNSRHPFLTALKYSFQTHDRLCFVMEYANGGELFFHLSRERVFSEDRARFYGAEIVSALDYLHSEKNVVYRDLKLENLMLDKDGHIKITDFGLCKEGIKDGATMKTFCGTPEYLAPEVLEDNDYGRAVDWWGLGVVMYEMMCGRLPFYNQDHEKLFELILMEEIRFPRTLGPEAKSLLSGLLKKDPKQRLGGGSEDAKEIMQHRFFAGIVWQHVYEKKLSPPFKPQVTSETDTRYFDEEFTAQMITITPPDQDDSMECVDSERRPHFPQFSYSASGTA
T10 sequence (Q9Y243 whole entry): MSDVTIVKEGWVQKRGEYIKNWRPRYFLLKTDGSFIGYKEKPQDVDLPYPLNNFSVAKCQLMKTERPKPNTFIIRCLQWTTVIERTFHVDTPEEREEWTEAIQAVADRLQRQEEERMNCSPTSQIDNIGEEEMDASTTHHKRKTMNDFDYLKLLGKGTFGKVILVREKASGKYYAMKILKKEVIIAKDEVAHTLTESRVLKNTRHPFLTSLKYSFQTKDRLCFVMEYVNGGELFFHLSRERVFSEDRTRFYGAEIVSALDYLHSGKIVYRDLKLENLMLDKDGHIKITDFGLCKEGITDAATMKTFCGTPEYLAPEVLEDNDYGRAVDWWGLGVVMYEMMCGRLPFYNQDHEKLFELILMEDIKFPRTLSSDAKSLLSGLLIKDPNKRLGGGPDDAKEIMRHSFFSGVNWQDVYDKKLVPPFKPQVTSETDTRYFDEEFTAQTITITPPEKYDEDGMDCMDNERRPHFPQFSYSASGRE

Compound: CCN1C(=O)N(c2c(F)c(OC)cc(OC)c2F)Cc2cnc3[nH]c(CN4CCOCC4)cc3c21 [INCB054828, pemigatinib]
- IC50 (AKT1): > 10 µM
- IC50 (FAK): > 10 µM
- GI50 (HEK293): > 20 µM
- IC50 (IKKA): > 10 µM
- IC50 (CHEK1): > 10 µM
- GI50 (DMS-114 (lung cancer)): 0.027 µM
- IC50 (TRKA): > 10 µM
- IC50 [1]: 0.801 µM
- inhibition at 0.1 µM (MST3 (STK24)): 7%
- inhibition at 0.1 µM (DYRK1B): 7%
- inhibition at 0.1 µM (MAPKAPK2): 0%
- inhibition at 0.1 µM (BRSK2): -2%
- inhibition at 0.1 µM (Casein kinase 1g2): -1%
- inhibition at 0.1 µM (PAK5 (PAK7)): 6%
- inhibition at 0.1 µM (EPHA8): -2%
- inhibition at 0.1 µM (EPHA3): 0%
- inhibition at 0.1 µM (CK1-epsilon): -1%
- inhibition at 0.1 µM (PDGFR-alpha (V561D)): 1%
- inhibition at 0.1 µM (AKT3): 3%
- inhibition at 0.1 µM (CamK1d): 14%
- inhibition at 0.1 µM (Mer): -1%
- inhibition at 0.1 µM (LCK): -2%
- inhibition at 0.1 µM (Ca MK1a): 3%
- inhibition at 0.1 µM (RSK3): -3%
- inhibition at 0.1 µM (MNK1 (MKNK1)): 6%
- inhibition at 0.1 µM (EPHB4 [2]): 4%
- inhibition at 0.1 µM (NEK2): -4%
- inhibition at 0.1 µM (MARK1): 10%
- inhibition at 0.1 µM (EPHB3): 0%
- inhibition at 0.1 µM (HER4): -15%
- inhibition at 0.1 µM (KIT[T670I]): -2%
- inhibition at 0.1 µM (AurB): 11%
- inhibition at 0.1 µM (PhKg1): -2%
- inhibition at 0.1 µM (EGFR(T790M)): -1%
- inhibition at 0.1 µM (RSK4): -1%
- inhibition at 0.1 µM (PYK2): -1%
- IC50 (MAP3K8): > 10 µM
- IC50 (PLK3): > 10 µM
- GI50 (OPM-2 (myeloma)): 0.018 ± 0.009 µM
- IC50 (EPHB4 [3]): > 10 µM
